One data set concerns HepG2. The data set can be described thus: Cytotoxicity against human HepG2 cells assessed as inhibition of cell growth at 30 uM incubated for 40 hrs by celltiterglo assay. It is filed as functional. Background: ATP-based viability assays read luminescence as a measure of living cells.
Data set [1] can be described thus: Metabolic stability in mouse lung assessed as parent compound remaining measured after 4 hrs by UPLC-MS analysis. It counts as ADME, tissue-based. The settings on record: mouse lung, read-out: Stability.
Data set [2] is described as follows: Metabolic stability in mouse kidney assessed as parent compound remaining measured after 1 hrs by UPLC-MS analysis. It is filed as ADME, tissue-based. The settings on record: read-out: Stability.
Data set [3] has as its system Escherichia coli. The data set can be described thus: Antibacterial activity against Escherichia coli ATCC 35218 harboring SbmA assessed as reduction in microbial growth incubated for 20 to 22 hrs by CLSI based analysis. The settings on record: time 20-22 hrs. It is filed as functional.
Data set [4] deals with Klebsiella pneumoniae. The experiment in a line: Antibacterial activity against Klebsiella pneumoniae ATCC 13883 harboring SbmA assessed as reduction in microbial growth incubated for 20 to 22 hrs by CLSI based analysis. The conditions noted are these: time 20-22 hrs. It counts as functional.
Data set [5] has as its system Escherichia coli. The data set can be described thus: Antibacterial activity against […] assessed as bacterial growth inhibition incubated for 20 to 22 hrs by CLSI based analysis. It is filed as functional. The conditions noted are these: time 20-22 hrs.
The subject of data set [6] is Escherichia coli. The data set can be described thus: Antibacterial activity against multidrug-resistant Escherichia coli BAA2469 assessed as bacterial growth inhibition incubated for 20 to 22 hrs by CLSI based analysis. It counts as functional. The settings on record: time 20-22 hrs.
For data set [7], the system named is Escherichia coli. The experiment in a line: Antibacterial activity against multidrug-resistant Escherichia coli MG1655 assessed as bacterial growth inhibition incubated for 20 to 22 hrs by CLSI based analysis. It is filed as functional. The conditions noted are these: time 20-22 hrs.
Data set [8] deals with Escherichia coli. The data set can be described thus: Antibacterial activity against multidrug-resistant Escherichia coli UT189 assessed as bacterial growth inhibition incubated for 20 to 22 hrs by CLSI based analysis. It counts as functional. The settings on record: time 20-22 hrs.
The subject of data set [9] is Klebsiella pneumoniae. The data set can be described thus: Antibacterial activity against multidrug-resistant Klebsiella pneumoniae G199 assessed as bacterial growth inhibition incubated for 20 to 22 hrs by CLSI based analysis. It is filed as functional. The settings on record: time 20-22 hrs.
The test system of data set [10] is Klebsiella pneumoniae. The experiment in a line: Antibacterial activity against multidrug-resistant Klebsiella pneumoniae B817 assessed as bacterial growth inhibition incubated for 20 to 22 hrs by CLSI based analysis. The settings on record: time 20-22 hrs. It counts as functional.
A further data set relates to Pseudomonas aeruginosa. The experiment in a line: Antibacterial activity against multidrug-resistant Pseudomonas aeruginosa PAO750 assessed as bacterial growth inhibition incubated for 20 to 22 hrs by CLSI based analysis. It is filed as functional. The settings on record: time 20-22 hrs.
A further data set deals with Enterobacter cloacae. The experiment in a line: Antibacterial activity against multidrug-resistant Enterobacter cloacae BAA2341 assessed as bacterial growth inhibition incubated for 20 to 22 hrs by CLSI based analysis. It is filed as functional. The conditions noted are these: time 20-22 hrs.
Data set [11] is described as follows: Protein binding in human plasma assessed as free fraction. It is filed as ADME, cell-free.
A short description of data set [12]: Ratio of drug concentration in mouse blood to plasma. It counts as ADME, cell-free.
Data set [13] in a line: Volume of distribution at steady state in Swiss mouse at 3 mg/kg, iv measured upto 24 hrs by LC-MS/MS analysis. It counts as ADME, organism-based. The conditions noted are these: in vivo, read-out: Vdss.
Data set [14] can be described thus: Ratio of AUC in Lung to plasma in Swiss mouse at 3 mg/kg, iv measured upto 24 hrs by LC-MS/MS analysis. It is filed as ADME, organism-based. The settings on record: read-out: Ratio AUC.
Data set [15] in a line: Ratio of AUC in kidney to plasma in Swiss mouse at 3 mg/kg, iv measured upto 24 hrs by LC-MS/MS analysis. It counts as ADME, organism-based. The conditions noted are these: read-out: Ratio AUC.
Data set [16] deals with Escherichia coli. The data set can be described thus: Antibacterial activity against Escherichia coli ATCC 25922 infected in Swiss albino mouse model of Septicaemia infection assessed as log reduction in Septicaemia in blood at 0.1 to 10 mg/kg , iv preincubated for 4 hrs followed by bacterial infection and measured after 4 hrs post infection. It is filed as functional. The settings on record: dose 0.1-10 mg/kg, time 8 hrs.

Molecules are shown by their SMILES. ≈ marks a conversion by molar mass, not a printed value. Calls of active or inactive are those of the source. No cut-off for these calls is given here.

As a reminder, the MIC is the least concentration at which growth counts as inhibited. For orientation: fraction unbound means the share of the substance not bound to proteins or other matrix. As to `CO[C@@H](CNC(=O)[C@H](NC(=O)[C@H](O)[C@H](C)O)[C@H](O)c1cncn1C)[C@H](O)[C@H](O)C(=O)N(C)[C@@H](Cc1ccccc1)C(=O)NCC(=O)N[C@H](C(=O)N[C@@H](CO)C(=O)N[C@H](C(=O)N[C@H](C(=O)N[C@@H](CC(=O)O)C(=O)N1CCC[C@H]1C(=O)NCc1cc(=O)c(O)cn1O)C(C)(C)C)C(C)(C)O)C(C)(C)O`, the result in the data set with HepG2 was inactive. Besides, the remaining at 4 h in data set [1] was found to be 80%. In data set [2], the remaining at 1 h is 103%. Also, the MIC in the data set on Escherichia coli [3] came out at 0.12 µg/mL; in the data set with Klebsiella pneumoniae [4], 16 µg/mL; in the data set on Escherichia coli [5], 0.06 µg/mL (≈ 0.0415 µM); in the data set on Escherichia coli [6] it was 0.06 µg/mL (≈ 0.0415 µM); in the data set with Escherichia coli [7], 0.03 µg/mL (≈ 0.0207 µM); with Escherichia coli [8], 0.01 µg/mL (≈ 0.00691 µM). Besides, the MIC with Klebsiella pneumoniae [9] was found to be 0.06 µg/mL (≈ 0.0415 µM); in the data set on Klebsiella pneumoniae [10] it was 0.03 µg/mL (≈ 0.0207 µM); with Pseudomonas aeruginosa it was 32 µg/mL (≈ 22.1 µM); in the data set with Enterobacter cloacae, 0.25 µg/mL (≈ 0.173 µM). For the same compound, the free fraction (fraction unbound) in data set [11] was found to be 0.26. Also, the blood plasma ratio in data set [12] was 4.5. Besides, the Vd in data set [13] was 0.25 L/kg. The Kp at 24 h in [14] was 0.4; in data set [15], 2.5. Besides, the “log(activity)” value in the data set on Escherichia coli [16] came to 3.
